Data from patent US20260325655A1, “DECREASING THE INTRINSICALLY DISORDERED PROTEIN ALPHA-SYNUCLEIN’S LEVELS BY TARGETING ITS STRUCTURED MRNA WITH A RIBONUCLEASE TARGETING CHIMERA” (University of Florida Research Foundation, Incorporated, priority 2023, published 2026).

What was measured:
[1] = test system: seven proteins encoded by genes enriched by Syn-CLIP; assay: Western blot validation of seven proteins encoded by transcripts enriched by Syn-CLIP; format: cell-based, human; settings: 2 μM, 48 h; SH-SY5Y
Experimental: Western blotting. After 48 h, cells were gently washed with ice-cold 1× DPBS, and total protein was extracted with Mammalian Protein Extraction Reagent (M-PER, Thermo Scientific) per the manufacturer's protocol. After quantifying protein concentration by using BCA Protein Assay Kit (Pierce Biotechnology), ~30 μg of total protein for each sample was separated using a 10% SDS-polyacrylamide gel and transferred onto a PVDF membrane. The membrane was fixed with 0.4% paraformaldehyde (pH=7.0) for 30 min at room temperature^9 and then blocked with 5% (w/v) non-fat dry milk in 1× TBST (1× TBS containing 0.1% Tween-20) for 1 h at room temperature. […] After washing 10 min each with 1× TBST three times, immunocomplex signals of each protein were detected by using a SuperSignal West Pico Chemiluminescent Substrate (Pierce Biotechnology) according to the manufacturer's protocol. The memebrane was then stripped by using 1× Stripping Buffer (200 mM glycine, pH 2.2, 4 mM SDS, 1% (v/v) Tween 20) at room temperature for 15 min, followed by blocking with 5% (w/v) non-fat dry milk at room temperature for 1 h. β-actin was used to normalize the levels of all proteins, measured by incubating with a primary antibody for β-actin (1:5000, 3700S from Cell Signaling Technology) at 4° C. overnight. […]

SNCA IRE = assay: MST binding affinity for SNCA IRE (A bulge model RNA); settings: microscale thermophoresis; Cy5-labeled RNA
Experimental: Binding Affinity Measurements: Microscale Thermophoresis (MST). Binding affinity measurements were performed on a Monolith NT.115 MST system (NanoTemper Technologies) with Cy5-labeled oligonucleotides. Briefly, Cy5-labeled RNA (5 nM) was prepared in 1× Folding Buffer and folded by heating at 60° C. for 5 min and then slowly cooling to room temperature. After cooling, Tween-20 was added to a final concentration of 0.1% (v/v). Compound solutions were prepared separately in 30 μL of 1× Assay Buffer at a final concentration of 5 μM (1% (v/v) DMSO), followed by 1:1 serial dilutions in 1× Assay Buffer. RNA and compound solutions were then mixed 1:1 by volume.
Samples were incubated for 20 min at room temperature and then loaded into premium capillaries (NanoTemper Technologies, Cat #MO-K025). The following parameters were used for MST measurement: 5-20% LED power (adjusted to keep fluorescence intensity between 8000 and 18000), 80% MST power, Laser-On time=30 s, and Laser-Off time=5 s. The resulting data were analyzed by calculating the change in thermophoresis as a function of compound concentration and fitted by Equation (3) in MST analysis software (NanoTemper Technologies) to yield the dissociation constant (Kd):
where F is the concentration of fluorescently labeled RNA; unbound and bound refer to the thermophoresis signal at completely unbound and bound state of RNA, respectively; c is the concentration of the compound; f (c) is the thermophoresis signal at compound concentration of c; Kd is the dissociation constant.

SH-SY5Y cells = assay: proteome-wide analysis in SH-SY5Y cells; format: cell-based, human; settings: for number of proteins downregulated / number of proteins upregulated / protein expression of seven genes enriched by Syn-CLIP (global proteomics) / number of proteins affected / percent of proteins affected: 2 μM; for number of proteins affected: of 3,436 (Syn-RiboTAC) or 2,813 (Synucleozid-2.0) proteins detected; for percent of proteins affected: of proteins detected
Experimental: Treatment of SH-SY5Y cells with Syn-RiboTAC for proteome-wide studies. SH-SY5Y cells were seeded in 6-well plates (~60% confluency) and treated with vehicle (0.1% (v/v) DMSO) or Syn-RiboTAC as described above. After 48 h, the cells were gently washed twice with 1× DPBS, harvested by scraping, and resuspended in 1× DPBS. They were then lysed by sonication. Protein concentrations were determined by using BCA Protein Assay Kit (Pierce Biotechnology). Reduction of […]-synuclein protein levels by Syn-RiboTAC were confirmed by Western blotting as described above. Protein samples were then denatured in 50 mM NH4HCO3, pH 8, containing 6 M urea and then reduced with 10 mM TCEP (tris(2-carboxyethyl)phosphine hydrochloride) for 30 min. The proteins were then alkylated with 25 mM iodoacetamide for 30 min in dark. Samples were diluted to 2 M urea containing 50 mM NH4HCO3, pH 8, and digested with trypsin (Thermo Scientific, 1.5 μL of 0.5 μg/μL) containing 1 mM CaCl2) (100× stock in water) at 37° C. for 12 h. Samples were acidified by adding acetic acid to a final concentration of 5% (v/v), desalted by using a self-packed C18 spin column, and dried. Samples obtained were analyzed by LC-MS/MS(as described below), and the MS data were processed with MaxQuant (as described below).
LC-MS/MS analysis and MaxQuant analysis. Peptides obtained above were resuspended in water containing 0.1% (v/v) formic acid and analyzed by using EASY-nLC 1200 nano-UHPLC coupled to Q Exactive HF-X Quadrupole-Orbitrap mass spectrometer (Thermo Scientific). Parameters for the chromatography column and elution methods were the same as previously described.^4 MS data were analyzed by using MaxQuant 14 (V1.6.1.0) and then searched against the human proteome (Uniprot) and a common list of contaminants (included in MaxQuant). The false discovery rate (FDR) for proteins, peptides and sites identification was set at 1%. Parameters were the same as described previously.^4

O=C(CSc1nnc(-c2ccncc2)n1-c1ccc(Br)cc1)Nc1ccc2cn[nH]c2c1 [Synucleozid-2.0]
effect on seven proteins by Western blot [1]: did not affect these seven proteins | Kd (SNCA IRE): 66 ± 4 nM | number of proteins downregulated (SH-SY5Y cells): 55 | number of proteins upregulated (SH-SY5Y cells): 95 | protein expression of seven genes enriched by Syn-CLIP (global proteomics) (SH-SY5Y cells): not significantly altered | number of proteins affected (SH-SY5Y cells): 150 | percent of proteins affected (SH-SY5Y cells): 0.53%

CCOC(=O)C1=C(Nc2ccccc2)S/C(=C\c2ccc(OCCOCCOCCOCCNC(=O)CCCOc3ccc(-n4c(SCC(=O)Nc5ccc6cn[nH]c6c5)nnc4-c4ccncc4)cc3)c(O)c2)C1=O [Syn-RiboTAC]
effect on seven proteins by Western blot [1]: did not affect these seven proteins | Kd (SNCA IRE): 103 ± 10 nM | enhancement in selectivity on the proteome vs Synucleozid 1.0 (SH-SY5Y cells): ~ 16 -fold | number of proteins downregulated (SH-SY5Y cells): 114 | number of proteins upregulated (SH-SY5Y cells): 80 | protein expression of seven genes enriched by Syn-CLIP (global proteomics) (SH-SY5Y cells): not significantly altered | number of proteins affected (SH-SY5Y cells): 194 | percent of proteins affected (SH-SY5Y cells): 0.56% | number of changed proteins that also showed the corresponding change at the transcript level (SH-SY5Y cells; of 194 changed proteins): 86 | percent of changed proteins with corresponding transcript change (SH-SY5Y cells; of 194 changed proteins): 44%
